From PubChem BioAssay (NCI)
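Where inhibition never reached the appropriate level, the endpoint shown equals the highest concentration tested. Otherwise, values were interpolated linearly from a five-concentration, 48-hour dose response in 96-well plates. The concentration for 50% growth inhibition is given as GI50. Definition used: TGI = concentration required for complete inhibition of growth.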

Tests used:
Test in all cases: NCI anticancer screen, dose series, 48 h
[1] = system: CAKI-1 renal
[2] = system: IGROV1 ovarian
[3] = system: LOX IMVI melanoma
[4] = system: MOLT-4 leukemia
[5] = system: NCI/ADR-RES ovarian
[6] = system: OVCAR-5 ovarian
[7] = system: SF-295 CNS
[8] = system: SNB-19 CNS
[9] = system: UACC-62 melanoma
[10] = system: UO-31 renal

SMILES	TGI [1]	TGI [2]	TGI [3]	TGI [4]	TGI [5]	TGI [6]	TGI [7]	TGI [8]	TGI [9]	TGI [10]	GI50 [1]	GI50 [2]	GI50 [3]	GI50 [4]	GI50 [5]	GI50 [6]	GI50 [7]	GI50 [8]	GI50 [9]	GI50 [10]
CS(C)(=O)=Nn1c(=O)n2n(c1=O)[C@H]1CC[C@@H]2C1	> 100 µM	> 100 µM	> 100 µM	> 100 µM	> 100 µM	> 100 µM	> 100 µM	> 100 µM	> 100 µM	> 100 µM	–	–	–	–	–	–	–	–	–	–
C=CCn1c(C)nc2cc(Nc3nc(N4CCCC4)nc4nc[nH]c34)ccc21	> 100 µM	> 100 µM	> 100 µM	> 100 µM	> 100 µM	> 100 µM	> 100 µM	> 100 µM	> 100 µM	> 100 µM	> 100 µM	> 100 µM	> 100 µM	> 100 µM	> 100 µM	> 100 µM	> 100 µM	> 100 µM	> 100 µM	> 100 µM
Cc1ccnn1CCc1ccc(Cl)cc1Cl	> 100 µM	> 100 µM	> 100 µM	56.6 µM	> 100 µM	> 100 µM	52.9 µM	> 100 µM	29.1 µM	46.3 µM	–	–	–	–	–	–	–	–	–	–
O=C1Sc2sc(=S)sc2SC1c1ccccc1 (stereo not given)	> 100 µM	> 100 µM	> 82.6 µM	> 100 µM	> 100 µM	> 100 µM	> 100 µM	> 100 µM	57.2 µM	> 86.7 µM	–	–	–	–	–	–	–	–	–	–
Cc1c2cnccc2c(C)c2c1c1ccccc1n2CCCCCCCl	> 50 µM	> 50 µM	> 50 µM	> 50 µM	> 50 µM	> 50 µM	> 50 µM	> 50 µM	> 50 µM	> 50 µM	–	–	–	–	–	–	–	–	–	–
CC1=CC2=C(C=O)C(=O)[C@](C)(O)[C@@H](O)C2=CO1	> 100 µM	> 100 µM	> 74.3 µM	41.3 µM	> 100 µM	> 100 µM	> 100 µM	5.5 µM	71.5 µM	43.8 µM	–	–	–	–	–	–	–	–	–	–
